Source: patent US11230538B2, “Herbicides” (SYNGENTA PARTICIPATIONS AG, priority 2016, dated 2022)

How the values were obtained:
Type in all cases: in vivo
[1] = tested on: Alopecurus myosuroides (ALOMY); experiment: B1 Pre-emergence herbicidal activity; set-up: key: 5=total damage to plant; 0=no damage to plant; conditions: pre-emergence application, rate 1000 g/ha, evaluated after 13 days
In short: (§1)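 Pots of sown seeds were sprayed one day after sowing, pre-emergence, with compound in acetone/water (50:50) containing 0.5% Tween 20. Plants were grown in a glasshouse at 24/16 °C day/night, 14 h light and 65% humidity. Damage was scored after 13 days on a 0 (none) to 5 (total) scale.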

Avena fatua (AVEFA) [2] = experiment: B1 Pre-emergence herbicidal activity; set-up: key: 5=total damage to plant; 0=no damage to plant; conditions: pre-emergence application, rate 1000 g/ha, evaluated after 13 days
In short: as §1

[3] = tested on: Triticum aestivium (TRZAW); experiment: B1 Pre-emergence herbicidal activity; set-up: key: 5=total damage to plant; 0=no damage to plant; conditions: pre-emergence application, rate 1000 g/ha, evaluated after 13 days
In short: as §1

[4] = tested on: Echinochloa crus-galli (ECHCG); experiment: B1 Pre-emergence herbicidal activity; conditions: pre-emergence application, rate 1000 g/ha, evaluated after 13 days
In short: as §1

Lolium perenne (LOLPE) [5] = experiment: B1 Pre-emergence herbicidal activity; set-up: key to Pre-emergence herbicidal activity, LOLPE (damage score 0-5): 5=total damage to plant; 0=no damage to plant; conditions: pre-emergence application, rate 1000 g/ha, evaluated after 13 days
In short: as §1

Setaria fabenr (SETFA) = experiment: B1 Pre-emergence herbicidal activity; set-up: key to Pre-emergence herbicidal activity, SETFA (damage score 0-5): 5=total damage to plant; 0=no damage to plant; conditions: pre-emergence application, rate 1000 g/ha, evaluated after 13 days
In short: as §1

Avena fatua (AVEFA) [6] = experiment: B2 Post-emergence herbicidal activity; conditions: post-emergence application, rate 1000 g/ha, evaluated after 13 days
In short: (§2)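 Plants grown 8 days in a glasshouse (24/16° C day/night, 14 h light, 65% humidity) were sprayed post-emergence with active ingredient formulated in acetone/water (50:50) containing 0.5% Tween 20. Damage was scored after 13 days on a 0–5 scale (5 = total damage).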

[7] = tested on: Echinochloa crus-galli (ECHCG); experiment: B2 Post-emergence herbicidal activity; set-up: key to Post-emergence herbicidal activity, ECHCG (damage score 0-5): 5=total damage to plant; 0=no damage to plant; conditions: post-emergence application, rate 1000 g/ha, evaluated after 13 days
In short: as §2

Lolium perenne (LOLPE) [8] = experiment: B2 Post-emergence herbicidal activity; conditions: post-emergence application, rate 1000 g/ha, evaluated after 13 days
In short: as §2

[9] = tested on: Alopecurus myosuroides (ALOMY); experiment: B2 Post-emergence herbicidal activity; set-up: key: 5=total damage to plant; 0=no damage to plant; conditions: post-emergence application, rate 1000 g/ha, evaluated after 13 days
In short: as §2

Setaria fabenri (SETFA) = experiment: B2 Post-emergence herbicidal activity; set-up: key: 5=total damage to plant; 0=no damage to plant; conditions: post-emergence application, rate 1000 g/ha, evaluated after 13 days
In short: as §2

[10] = tested on: Triticum aestivium (TRZAW); experiment: B2 Post-emergence herbicidal activity; set-up: key: 5=total damage to plant; 0=no damage to plant; conditions: post-emergence application, rate 1000 g/ha, evaluated after 13 days
In short: as §2

Row | Compound | Pre-emergence herbicidal activity, ALOMY (damage score 0-5) [1] | Pre-emergence herbicidal activity, AVEFA (damage score 0-5) (Avena fatua (AVEFA) [2]) | Pre-emergence herbicidal activity, TRAZW (damage score 0-5) [3] | Pre-emergence herbicidal activity, ECHCG (damage score 0-5) [4] | Pre-emergence herbicidal activity, LOLPE (damage score 0-5) (Lolium perenne (LOLPE) [5]) | Pre-emergence herbicidal activity, SETFA (damage score 0-5) (Setaria fabenr (SETFA)) | Post-emergence herbicidal activity, AVEFA (damage score 0-5) (Avena fatua (AVEFA) [6]) | Post-emergence herbicidal activity, ECHCG (damage score 0-5) [7] | Post-emergence herbicidal activity, LOLPE (damage score 0-5) (Lolium perenne (LOLPE) [8]) | Post-emergence herbicidal activity, ALOMY (damage score 0-5) [9] | Post-emergence herbicidal activity, SETFA (damage score 0-5) (Setaria fabenri (SETFA)) | Post-emergence herbicidal activity, TRAZW (damage score 0-5) [10]
1 | O=C1CCCN1c1ccc(-c2cncc(F)c2)nc1C(F)(F)F [Compound C55] | 0 | 1 | 0 | 1 | 1 | 4 | 3 | 4 | 2 | 1 | 4 | 0
2 | O=C(CC(F)(F)F)Nc1ccc(-c2cncc(F)c2)nc1C(F)(F)F [Compound C56] | 0 | 1 | 0 | 3 | 0 | 4 | 3 | 4 | 2 | 0 | 4 | 1
3 | CCC(=O)N(CC#N)c1ccc(-c2cncc(F)c2)nc1C(F)(F)F [Compound C57] | 0 | 1 | 0 | 3 | 0 | 4 | 2 | 4 | 2 | 0 | 4 | 0
4 | CC(C)C(=O)N(CC#N)c1ccc(-c2cncc(F)c2)nc1C(F)(F)F [Compound C58] | 0 | 0 | 0 | 3 | 0 | 5 | 2 | 4 | 1 | 0 | 5 | 0
5 | O=C(Nc1ccc(-c2cncc(F)c2)nc1C(F)(F)F)C1CC1 [Compound C59] | 0 | 3 | 0 | 4 | 1 | 5 | 3 | 5 | 3 | 1 | 4 | 0
6 | O=C(Nc1ccc(-c2cncnc2)nc1C(F)(F)F)C(Cl)(Cl)Cl [Compound C60] | 0 | 2 | 0 | 3 | 0 | 5 | 3 | 4 | 3 | 0 | 4 | 0
